{
  "source": "patent US20170049836A1",
  "about": "“COMPOSITIONS COMPRISING BOTANICALS, INCLUDING THE USE AND METHOD OF USE THEREOF” (FEM MED FORMULAS LIMITED PARTNERSHIP, priority 2010, published 2017)",
  "origin": "cited, not measured here",
  "key": {"[1]": {"test_system": "estrogen receptor-positive breast cancer cells"}, "[2]": {"test_system": "ratio of 2-OHE to 16-αOHE"}},
  "note": "Like-named read-outs stand apart in the source and are kept apart here.",
  "data": [
    {"compound": "C[C@]12CC[C@@H]3c4cc(O)c(O)cc4CC[C@H]3[C@@H]1CCC2=O", "note": "[2-OHE, 2-hydroxyestrone]", "values": [
      {"measurement": "effect on cell growth / proliferation", "setting": "[1]", "result": "no effect on cell growth"}
    ]},
    {"compound": "OCc1c[nH]c2ccccc12", "note": "[I3C, Indole-3-carbinol]", "values": [
      {"measurement": "women with sustained increase in ratio of 2-OHE to 16-αOHE", "setting": "[2]; 17 of 20 women, 200 or 400 mg/day", "result": 85, "unit": "%"},
      {"measurement": "average increase in 2-OHE:16-αOHE ratio", "setting": "[2]; 20 women, 400 mg daily", "result": 65, "unit": "%"},
      {"measurement": "increase in 2-OHE:16-αOHE ratio, overall", "setting": "[2]; 200-400 mg, regular consumption, vast majority of women", "result": "approx. 60%"},
      {"measurement": "average increase in ratio of 2-OHE to 16-αOHE", "setting": "[2]; 200 or 400 mg/day, over the course of the trial", "result": 44, "unit": "%"},
      {"measurement": "change in 2-OHE:16-αOHE ratio", "setting": "[2]; all 20 women, 300 or 400 mg, 4 weeks", "result": "significantly increased"},
      {"measurement": "average increase in 2-OHE:16-αOHE ratio", "setting": "[2]; non-obese women, same trial", "result": 38, "unit": "%"},
      {"measurement": "average increase in 2-OHE:16-αOHE ratio", "setting": "[2]; obese women (four out of five), two-month period", "result": 93, "unit": "%"}
    ]},
    {"compound": "C[C@]12CC[C@@H]3c4ccc(O)cc4CC[C@H]3[C@@H]1C[C@@H](O)C2=O", "note": "[16-αOHE, 16-αhydrxyestrone]", "values": [
      {"measurement": "effect on cell growth / proliferation", "setting": "[1]", "result": "stimulates proliferation"}
    ]}
  ]
}
